Marks after values point to notes of the source that are not given here.
Key:
patients with hyposmia = assay: Olfactometry: DT, RT, ME and H for pyridine, nitrobenzene, thiophene, amyl acetate; format: in vivo, human
[1] = tested on: patients with hyposmia and hypogeusia; assay: Adverse effects during intranasal theophylline pilot study; format: in vivo, human; details: intranasal drug use, 10 patients, 4 weeks
From the text: We performed an open-label pilot study in patients with hyposmia and hypogeusia under the following 3 conditions: (1) before treatment, (2) after oral theophylline treatment, and (3) after intranasal theophylline treatment. Under each condition, we performed subjective evaluations of taste or smell functions, quantitative measurements of taste (gustometry) and smell (olfactometry), and measurements of serum theophylline level and body weight.
A pilot study of intranasal theophylline treatment was then initiated among these 10 patients. This trial was an investigator initiated phase 1, open-label, single-source, controlled pilot study. Intranasal drug therapy reflected a compassionate trial of a potentially more useful therapeutic method to improve hyposmia (and hypogeusia) than oral theophylline. Before the intranasal trial, risks and benefits were explained and the patients signed an informed consent.
Each patient delivered the theophylline dose in each naris once daily throughout the study. Patients underwent evaluation 1, 2, and 4 weeks during drug use with the same measurements used for the oral study.

[2] = after oral treatment vs before treatment, 10 patients
[3] = hyposmic patients TREATED (31) with oral theophylline
[4] = oral theophylline dose 200 mg (6 patients)
[5] = oral theophylline dose 400 mg (6 patients)
[6] = oral theophylline dose 600 mg (14 patients)
[7] = oral theophylline dose 800 mg (5 patients)

Structure (SMILES): Cn1c(=O)c2[nH]cnc2n(C)c1=O [theophylline]
- Magnitude estimations for each odor (patients with hyposmia; after intranasal treatment vs before treatment or after oral treatment): higher (more intense)
- DTs and RTs for all odorants (patients with hyposmia; [2]): decreased (more sensitive)
- HRs for all odorants (patients with hyposmia; [2]): increased
- MEs for all odorants (patients with hyposmia; [2]): increased (more sensitive)
- AMYL ACETATE DT (patients with hyposmia; [3]): 1.2 ± 0.6^d,a2 BU
- AMYL ACETATE H (patients with hyposmia; [3]): 3 ± 4%
- AMYL ACETATE ME (patients with hyposmia; [3]): 17 ± 5^a2%
- AMYL ACETATE RT (patients with hyposmia; [3]): 5.5 ± 0.8^d BU
- PYRIDINE DT (patients with hyposmia; [3]): 5.7 ± 0.7^c,b2 BU
- PYRIDINE H (patients with hyposmia; [3]): −32 ± 6%
- PYRIDINE ME (patients with hyposmia; [3]): 40 ± 6%
- PYRIDINE RT (patients with hyposmia; [3]): 6.7 ± 0.8^d BU
- THEOPHENE DT (patients with hyposmia; [3]): 5.1 ± 0.7^e,a2 BU
- THEOPHENE H (patients with hyposmia; [3]): −9 ± 4^a2%
- THEOPHENE ME (patients with hyposmia; [3]): 18 ± 4^a2%
- THEOPHENE RT (patients with hyposmia; [3]): 5.5 ± 0.8^e,e2 BU
- patients who exhibited improved smell function (patients with hyposmia; hyposmic patients after oral treatment (text of Example 9)): 60%
- AMYL ACETATE DT (patients with hyposmia; [4]): 8.2 ± 2.1 BU
- AMYL ACETATE H (patients with hyposmia; [4]): 8 ± 8%
- AMYL ACETATE ME (patients with hyposmia; [4]): 12 ± 11%
- AMYL ACETATE RT (patients with hyposmia; [4]): 8.6 ± 1.9 BU
- PYRIDINE DT (patients with hyposmia; [4]): 8.4 ± 0.8 BU
- PYRIDINE H (patients with hyposmia; [4]): −34 ± 13%
- PYRIDINE ME (patients with hyposmia; [4]): 35 ± 15%
- PYRIDINE RT (patients with hyposmia; [4]): 9.8 ± 0.9 BU
- THIOPHENE DT (patients with hyposmia; [4]): 8.2 ± 1.8 BU
- THIOPHENE H (patients with hyposmia; [4]): −14 ± 11%
- THIOPHENE RT (patients with hyposmia; [4]): 8.8 ± 2.0 BU
- Thiophene magnitude estimation (%) (patients with hyposmia; [4]): 10 ± 15 BU
- AMYL ACETATE DT (patients with hyposmia; [5]): 6.0 ± 1.0 BU
- AMYL ACETATE H (patients with hyposmia; [5]): 0 ± 0%
- AMYL ACETATE ME (patients with hyposmia; [5]): 17 ± 10%
- AMYL ACETATE RT (patients with hyposmia; [5]): 6.2 ± 1.7 BU
- PYRIDINE DT (patients with hyposmia; [5]): 7.0 ± 1.8 BU
- PYRIDINE H (patients with hyposmia; [5]): −35 ± 15%
- PYRIDINE ME (patients with hyposmia; [5]): 43 ± 12%
- PYRIDINE RT (patients with hyposmia; [5]): 7.8 ± 2.2 BU
- THIOPHENE DT (patients with hyposmia; [5]): 6.2 ± 1.9 BU
- THIOPHENE H (patients with hyposmia; [5]): −6 ± 1%
- THIOPHENE RT (patients with hyposmia; [5]): 9.2 ± 2.4 BU
- Thiophene magnitude estimation (%) (patients with hyposmia; [5]): 0 ± 0 BU
- AMYL ACETATE DT (patients with hyposmia; [6]): 5.0 ± 1.2^c BU
- AMYL ACETATE H (patients with hyposmia; [6]): 14 ± 5%
- AMYL ACETATE ME (patients with hyposmia; [6]): 24 ± 8%
- AMYL ACETATE RT (patients with hyposmia; [6]): 5.4 ± 1.2^b BU
- PYRIDINE DT (patients with hyposmia; [6]): 5.2 ± 0.9^d BU
- PYRIDINE H (patients with hyposmia; [6]): −10 ± 8%
- PYRIDINE ME (patients with hyposmia; [6]): 50 ± 8%
- PYRIDINE RT (patients with hyposmia; [6]): 5.8 ± 1.1^d BU
- THIOPHENE DT (patients with hyposmia; [6]): 6.2 ± 1.1 BU
- THIOPHENE H (patients with hyposmia; [6]): −19 ± 7%
- THIOPHENE RT (patients with hyposmia; [6]): 7.9 ± 1.0 BU
- Thiophene magnitude estimation (%) (patients with hyposmia; [6]): 26 ± 7 BU
- AMYL ACETATE DT (patients with hyposmia; [7]): 4.0 ± 1.3^d BU
- AMYL ACETATE H (patients with hyposmia; [7]): 15 ± 12%
- AMYL ACETATE ME (patients with hyposmia; [7]): 17 ± 11%
- AMYL ACETATE RT (patients with hyposmia; [7]): 4.5 ± 1.0^b BU
- PYRIDINE DT (patients with hyposmia; [7]): 2.8 ± 1.2^a BU
- PYRIDINE H (patients with hyposmia; [7]): −20 ± 13%
- PYRIDINE ME (patients with hyposmia; [7]): 36 ± 15%
- PYRIDINE RT (patients with hyposmia; [7]): 4.0 ± 1.8^d BU
- THIOPHENE DT (patients with hyposmia; [7]): 4.0 ± 1.5^d BU
- THIOPHENE H (patients with hyposmia; [7]): −15 ± 16%
- THIOPHENE RT (patients with hyposmia; [7]): 5.2 ± 1.4 BU
- Thiophene magnitude estimation (%) (patients with hyposmia; [7]): 29 ± 16 BU
- adverse effects [1]: No adverse effects
